Results reported in publication PMC4618636 (Pharmacology Research & Perspectives, 2015).
Values joined by “and” are separate entries in the source; they are usually repeats but may differ in a detail not shown here. Equal entries are not always repeated. Where two headings read alike, the source gives them in different places.

Columns and labels:
[1] = system: CYP2B6; settings: for CYP2B6 Indmax: mean from two experiments; for CYP2B6 % PB: relative to positive control phenobarbital, equation 2
[2] = system: CYP3A4; settings: for CYP3A4 RIS: mean of two experiments; for CYP3A4 % Rif: relative to positive control rifampicin, equation 2; for CYP3A4 Ind50: column headed Ind50 in Table 5
[3] = system: CYP3A4; settings: in vivo induction value used for the RIS calibration; cited from earlier work
[4] = upcyte Donor 10-03, mean from two experiments
[5] = upcyte Donor 10-03, values of two experiments
[6] = upcyte Donor 151-03, mean from two experiments
[7] = upcyte Donor 151-03, values of two experiments
[8] = upcyte Donor 422A-03, mean from two experiments
[9] = upcyte Donor 422A-03, values of two experiments
[10] = upcyte Donor 653-03, mean from two experiments
[11] = upcyte Donor 653-03, values of two experiments
[12] = negative controls, any concentration tested (quinidine 0.1–250 μmol/L, flumazenil 0.05–50 μmol/L), data not shown

C[C@@H]1C[C@H]2[C@@H]3CCC4=CC(=O)C=C[C@]4(C)[C@@]3(F)[C@@H](O)C[C@]2(C)[C@@]1(O)C(=O)CO [Dexamethasone, dexamethasone]
CYP2B6 Indmax ([1]; upcyte Donor 10-03): No induction
CYP2B6 % PB ([1]; upcyte Donor 10-03): No induction
CYP2B6 Indmax ([1]; upcyte Donor 151-03): No induction
CYP2B6 % PB ([1]; upcyte Donor 151-03): No induction
CYP2B6 Indmax ([1]; upcyte Donor 422A-03): No induction
CYP2B6 % PB ([1]; upcyte Donor 422A-03): No induction
CYP2B6 Indmax ([1]; upcyte Donor 653-03): No induction
CYP2B6 % PB ([1]; upcyte Donor 653-03): No induction

CO[C@H]1/C=C/O[C@@]2(C)Oc3c(C)c(O)c4c(O)c(c(/C=N/N5CCN(C)CC5)c(O)c4c3C2=O)NC(=O)/C(C)=C\C=C\[C@H](C)[C@H](O)[C@@H](C)[C@@H](O)[C@@H](C)[C@H](OC(C)=O)[C@@H]1C [Rifampicin, rifampicin]
CYP2B6 Indmax ([1]; upcyte Donor 10-03): 2.0 fold
CYP2B6 % PB ([1]; upcyte Donor 10-03): 34%
CYP2B6 Indmax ([1]; upcyte Donor 151-03): 1.3 fold
CYP2B6 % PB ([1]; upcyte Donor 151-03): 14%
CYP2B6 Indmax ([1]; upcyte Donor 422A-03): 7.8 fold
CYP2B6 % PB ([1]; upcyte Donor 422A-03): 108%
CYP2B6 Indmax ([1]; upcyte Donor 653-03): 1.6 fold
CYP2B6 % PB ([1]; upcyte Donor 653-03): 29%

Cc1c(C)c2c(c(C)c1O)CCC(C)(COc1ccc(CC3SC(=O)NC3=O)cc1)O2 (centres unmarked) [Troglitazone, troglitazone]
CYP3A4 Indmax [2, 4]: 4.7 fold
CYP3A4 RIS ([2]; upcyte Donor 10-03): 0.083
CYP3A4 % Rif ([2]; upcyte Donor 10-03): 12%
CYP3A4 Indmax [2, 5]: 5.0 fold and 4.4 fold
CYP3A4 Indmax [2, 6]: 1.8 fold
CYP3A4 RIS ([2]; upcyte Donor 151-03): 0.094
CYP3A4 % Rif ([2]; upcyte Donor 151-03): 13%
CYP3A4 Indmax [2, 7]: 2.3 fold and 1.3 fold
CYP3A4 Indmax [2, 8]: 2.7 fold
CYP3A4 RIS ([2]; upcyte Donor 422A-03): 1.030
CYP3A4 % Rif ([2]; upcyte Donor 422A-03): 15%
CYP3A4 Indmax [2, 9]: 2.6 fold and 2.7 fold
CYP3A4 Ind50 ([2]; upcyte Donor 653-03): 14
CYP3A4 Indmax [2, 10]: 2.2 fold
CYP3A4 RIS ([2]; upcyte Donor 653-03): 0.466
CYP3A4 Indmax [2, 11]: 1.8 fold and 2.6 fold
CYP2B6 Indmax ([1]; upcyte Donor 10-03): 5.4 fold
CYP2B6 % PB ([1]; upcyte Donor 10-03): 150%
CYP2B6 Indmax ([1]; upcyte Donor 151-03): 2.1 fold
CYP2B6 % PB ([1]; upcyte Donor 151-03): 57%
CYP2B6 Indmax ([1]; upcyte Donor 422A-03): 5.0 fold
CYP2B6 % PB ([1]; upcyte Donor 422A-03): 63%
CYP2B6 Indmax ([1]; upcyte Donor 653-03): 2.3 fold
CYP2B6 % PB ([1]; upcyte Donor 653-03): 63%
% Decrease in midazolam AUC [3]: 67%

CCOC(=O)c1ncn2c1CN(C)C(=O)c1cc(F)ccc1-2 [Flumazenil, flumazenil]
CYP3A4 induction [2, 12]: did not induce
CYP3A4 Indmax [2, 4]: No induction
CYP3A4 RIS ([2]; upcyte Donor 10-03): No induction
CYP3A4 % Rif ([2]; upcyte Donor 10-03): No induction
CYP3A4 Indmax [2, 5]: No induction
CYP3A4 Indmax [2, 6]: No induction
CYP3A4 RIS ([2]; upcyte Donor 151-03): No induction
CYP3A4 % Rif ([2]; upcyte Donor 151-03): No induction
CYP3A4 Indmax [2, 7]: No induction
CYP3A4 Indmax [2, 8]: No induction
CYP3A4 RIS ([2]; upcyte Donor 422A-03): No induction
CYP3A4 % Rif ([2]; upcyte Donor 422A-03): No induction
CYP3A4 Indmax [2, 9]: No induction
CYP3A4 Ind50 ([2]; upcyte Donor 653-03): No induction
CYP3A4 Indmax [2, 10]: No induction
CYP3A4 RIS ([2]; upcyte Donor 653-03): No induction
CYP3A4 Indmax [2, 11]: No induction
CYP2B6 induction [1, 12]: did not induce
CYP2B6 Indmax ([1]; upcyte Donor 10-03): No induction
CYP2B6 % PB ([1]; upcyte Donor 10-03): No induction
CYP2B6 Indmax ([1]; upcyte Donor 151-03): No induction
CYP2B6 % PB ([1]; upcyte Donor 151-03): No induction
CYP2B6 Indmax ([1]; upcyte Donor 422A-03): No induction
CYP2B6 % PB ([1]; upcyte Donor 422A-03): No induction
CYP2B6 Indmax ([1]; upcyte Donor 653-03): No induction
CYP2B6 % PB ([1]; upcyte Donor 653-03): No induction
% Decrease in midazolam AUC [3]: 0%
